Structures can show the parent of a compound that is named as a salt.
Columns and labels:
[1] = biological target: T1, rat FAAH (Rattus norvegicus, UniProt P97612); assay: Assay Method 2: FAAH assay, 3H-anandamide hydrolysis in homogenate of SK-N-MC cells transfected with rat FAAH; type: biochemical; conditions: average of results, > = solubility limit or highest concentration tested
T1 sequence (P97612 1-579): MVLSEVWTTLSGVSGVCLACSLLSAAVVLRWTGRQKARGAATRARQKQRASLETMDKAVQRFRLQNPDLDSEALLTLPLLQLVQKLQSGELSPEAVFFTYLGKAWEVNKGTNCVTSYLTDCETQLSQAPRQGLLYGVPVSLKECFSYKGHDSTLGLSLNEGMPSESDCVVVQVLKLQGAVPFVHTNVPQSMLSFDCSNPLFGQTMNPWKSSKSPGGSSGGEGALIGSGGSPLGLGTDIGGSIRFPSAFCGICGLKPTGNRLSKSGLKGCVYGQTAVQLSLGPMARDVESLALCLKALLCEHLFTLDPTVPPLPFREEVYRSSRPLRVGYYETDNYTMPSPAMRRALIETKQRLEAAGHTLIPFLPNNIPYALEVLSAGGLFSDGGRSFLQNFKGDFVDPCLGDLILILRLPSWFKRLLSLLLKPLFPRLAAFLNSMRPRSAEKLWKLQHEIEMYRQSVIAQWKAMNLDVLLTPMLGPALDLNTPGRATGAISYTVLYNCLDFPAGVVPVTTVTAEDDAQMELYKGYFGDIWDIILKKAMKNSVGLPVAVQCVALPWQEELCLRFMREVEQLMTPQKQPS
Outline: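 Read-out is scintillation counting of [3H]-ethanolamine passing through activated charcoal, after 1 h at rt with 80 nM final [3H]-AEA. Enzyme source: lysate of G418-selected SK-N-MC clones expressing rat FAAH, homogenized in Tris/EDTA/glycerol/0.02% Triton buffer, pH 9.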

[2] = biological target: T2, FAAH (Homo sapiens, UniProt O00519); assay: Assay Method 1: FAAH assay, 3H-anandamide hydrolysis in homogenate of T84 cells or SK-N-MC cells transfected with human FAAH; type: biochemical; conditions: average of results, > = solubility limit or highest concentration tested
T2 sequence (O00519 1-579): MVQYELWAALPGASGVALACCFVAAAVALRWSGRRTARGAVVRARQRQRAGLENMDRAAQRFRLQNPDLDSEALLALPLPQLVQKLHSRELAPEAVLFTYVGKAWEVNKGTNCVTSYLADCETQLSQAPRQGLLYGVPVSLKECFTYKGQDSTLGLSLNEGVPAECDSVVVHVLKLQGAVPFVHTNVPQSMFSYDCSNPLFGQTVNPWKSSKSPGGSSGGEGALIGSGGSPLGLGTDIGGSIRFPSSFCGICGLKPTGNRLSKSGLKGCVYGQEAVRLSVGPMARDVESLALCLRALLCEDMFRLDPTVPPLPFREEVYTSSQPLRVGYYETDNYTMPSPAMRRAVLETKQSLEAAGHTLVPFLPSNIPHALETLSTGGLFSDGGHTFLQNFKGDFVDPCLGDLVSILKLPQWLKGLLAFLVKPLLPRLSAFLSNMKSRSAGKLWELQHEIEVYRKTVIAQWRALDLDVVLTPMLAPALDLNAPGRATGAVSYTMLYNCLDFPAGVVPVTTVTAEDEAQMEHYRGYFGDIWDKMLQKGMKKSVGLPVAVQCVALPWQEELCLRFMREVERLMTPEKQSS
Outline: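 Hydrolysis of ^3H-anandamide (80 nM final, added last) was measured over 1 h at rt, using test compound with homogenate of T84 cells or human FAAH-transfected SK-N-MC cells. The homogenization buffer was 125 mM Tris, 1 mM EDTA, 0.02% Triton X-100, pH 9. Unbound labelled ethanolamine was passed through charcoal filters and scintillation-counted.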

`O=C(Nc1cccnn1)N1CCN(Cc2ccc3ccccc3c2)CC1` [Example 200, 4-(Naphthalen-2-ylmethyl)-N-pyridazin-3-ylpiperazine-1-carboxamide] was tested, and the IC50 [1] was 0.5 µM and the IC50 [2] was 0.038 µM.

In the case of `O=C(Nc1cccnn1)N1CCN(Cc2ccc3[nH]ccc3c2)CC1` [Example 201, 4-(1H-Indol-5-ylmethyl)-N-pyridazin-3-ylpiperazine-1-carboxamide], the IC50 [1] is reported as > 10 µM and the IC50 [2] is reported as > 10 µM.

Work on `O=C(Nc1cccc2nsnc12)N1CCN(Cc2cccc(C#Cc3ccccc3)c2)CC1` [Example 202, N-2,1,3-Benzothiadiazol-4-yl-4-{[3-(phenylethynyl)phenyl]methyl}-piperazine-1-carboxamide] yielded an IC50 [1] of 0.085 µM and an IC50 [2] of 0.045 µM.

For `O=C(Nc1cccc2nonc12)N1CCN(Cc2cccc(C#Cc3ccccc3)c2)CC1` [Example 203, N-2,1,3-Benzoxadiazol-4-yl-4-{[3-(phenylethynyl)phenyl]methyl}-piperazine-1-carboxamide], the IC50 [1] was 0.35 µM and the IC50 [2] was 0.21 µM.

Molecule `O=C(Nc1noc2ccccc12)N1CCN(Cc2cccc(Oc3ccc(C(F)(F)F)c(Cl)c3)c2)CC1` [Example 204, 4-[3-(3-Chloro-4-trifluoromethyl-phenoxy)-benzyl]-piperazine-1-carboxylic acid benzo[d]isoxazol-3-ylamide trifluoroacetic acid salt] has an IC50 [1] of 0.032 µM and an IC50 [2] of 0.014 µM.

Work on `O=C(Nc1noc2ccccc12)N1CCN(Cc2cccc(Oc3ccc(Cl)c(C(F)(F)F)c3)c2)CC1` [Example 205, 4-[3-(4-Chloro-3-trifluoromethyl-phenoxy)-benzyl]-piperazine-1-carboxylic acid benzo[d]isoxazol-3-ylamide trifluoroacetic acid salt] yielded an IC50 [1] of 0.225 µM and an IC50 [2] of 0.106 µM.

`O=C(Nc1noc2ccccc12)N1CCN(Cc2cccc(Oc3ccc(Cl)c(F)c3)c2)CC1` [Example 206, 4-[3-(4-Chloro-3-fluoro-phenoxy)-benzyl]-piperazine-1-carboxylic acid benzo[d]isoxazol-3-ylamide] showed an IC50 [1] of 0.021 µM and an IC50 [2] of 0.011 µM.

For `O=C(Nc1noc2ccccc12)N1CCN(Cc2cccc(Oc3ccc(F)c(Cl)c3)c2)CC1` [Example 207, 4-[3-(3-Chloro-4-fluoro-phenoxy)-benzyl]-piperazine-1-carboxylic acid benzo[d]isoxazol-3-ylamide], the IC50 [1] was 0.046 µM and the IC50 [2] was 0.034 µM.

Molecule `O=C(Nc1noc2ccccc12)N1CCN(Cc2cccc(Oc3ccc(F)cc3)c2)CC1` [Example 208, 4-[3-(4-Fluoro-phenoxy)-benzyl]-piperazine-1-carboxylic acid benzo[d]isoxazol-3-ylamide] has an IC50 [1] of 0.017 µM and an IC50 [2] of 0.021 µM.

`CCCCc1ccc(Oc2cccc(CN3CCN(C(=O)Nc4noc5ccccc45)CC3)c2)cc1` [Example 209, 4-[3-(4-Butyl-phenoxy)-benzyl]-piperazine-1-carboxylic acid benzo[d]isoxazol-3-ylamide] gave an IC50 [1] of 0.002 µM and an IC50 [2] of 0.009 µM.

`O=C(Nc1cnccn1)N1CCN(Cc2ccc3c(c2)OC(F)(F)O3)CC1` [Example 210, 4-[(2,2-Difluoro-1,3-benzodioxol-5-yl)methyl]-N-pyrazin-2-ylpiperazine-1-carboxamide] gave an IC50 [1] of 1.16 µM and an IC50 [2] of 1.75 µM.

In the case of `O=C(Nc1cnccn1)N1CCN(Cc2ccc3c(c2)OCO3)CC1` [Example 211, 4-(1,3-Benzodioxol-5-ylmethyl)-N-pyrazin-2-ylpiperazine-1-carboxamide], the IC50 [1] is reported as > 10 µM and the IC50 [2] is reported as 3 µM.

`O=C(Nc1cnccn1)N1CCN(Cc2ccc(Br)cc2)CC1` [Example 212, 4-(4-Bromobenzyl)-N-pyrazin-2-ylpiperazine-1-carboxamide] was tested, and the IC50 [1] was 8 µM and the IC50 [2] was 0.5 µM.

Molecule `O=C(Nc1cnccn1)N1CCN(Cc2ccc3ccccc3c2)CC1` [Example 213, 4-(Naphthalen-2-ylmethyl)-N-pyrazin-2-ylpiperazine-1-carboxamide] has an IC50 [1] of 0.32 µM and an IC50 [2] of 0.1 µM.

`O=C(Nc1cnccn1)N1CCN(Cc2cccc(Oc3ccc(OCC(F)(F)F)cc3)c2)CC1` [Example 214, N-Pyrazin-2-yl-4-{3-[4-(2,2,2-trifluoroethoxy)phenoxy]benzyl}-piperazine-1-carboxamide] was tested, and the IC50 [1] was 0.09 µM and the IC50 [2] was 0.015 µM.

Molecule `O=C(Nc1cnccn1)N1CCN(Cc2cccc(Oc3ccc(C(F)(F)F)cc3)c2)CC1` [Example 215, N-Pyrazin-2-yl-4-{3-[4-(trifluoromethyl)phenoxy]benzyl}piperazine-1-carboxamide] has an IC50 [1] of 0.03 µM and an IC50 [2] of 0.001 µM.

`O=C(Nc1cnccn1)N1CCN(Cc2ccc3[nH]ccc3c2)CC1` [Example 216, 4-(1H-Indol-5-ylmethyl)-N-pyrazin-2-ylpiperazine-1-carboxamide] was tested, and the IC50 [1] was > 10 µM and the IC50 [2] was > 10 µM.

`O=C(Nc1cnccn1)N1CCN(Cc2ccc(Br)c(Br)c2)CC1` [Example 217, 4-(3,4-Dibromobenzyl)-N-pyrazin-2-ylpiperazine-1-carboxamide] showed an IC50 [1] of 0.25 µM and an IC50 [2] of 0.15 µM.

`O=C(Nc1cnccn1)N1CCN(Cc2cc3ccccc3s2)CC1` [Example 218, 4-(1-Benzothiophen-2-ylmethyl)-N-pyrazin-2-ylpiperazine-1-carboxamide] showed an IC50 [1] of 0.7 µM and an IC50 [2] of 0.17 µM.

With `O=C(Nc1cnccn1)N1CCN(Cc2ccc(Cl)c(Cl)c2)CC1` [Example 220, 4-(3,4-Dichlorobenzyl)-N-pyrazin-2-ylpiperazine-1-carboxamide] the IC50 [1] was 0.43 µM and the IC50 [2] was 0.32 µM.

Molecule `O=C(Nc1cnccn1)N1CCN(Cc2cccc(Oc3ccc(Br)cc3)c2)CC1` [Example 221, 4-[3-(4-Bromophenoxy)benzyl]-N-pyrazin-2-ylpiperazine-1-carboxamide] has an IC50 [1] of 0.05 µM and an IC50 [2] of 0.003 µM.

`O=C(Nc1cnccn1)N1CCN(Cc2ccc(Br)c(F)c2)CC1` [Example 222, 4-(4-Bromo-3-fluorobenzyl)-N-pyrazin-2-ylpiperazine-1-carboxamide] was tested, and the IC50 [1] was 0.6 µM and the IC50 [2] was 0.7 µM.

`O=C(Nc1cnccn1)N1CCN(Cc2cnc3ccccc3c2)CC1` [Example 224, N-Pyrazin-2-yl-4-(quinolin-3-ylmethyl)piperazine-1-carboxamide] was tested, and the IC50 [1] was > 10 µM and the IC50 [2] was 4 µM.

In the case of `O=C(Nc1cnccn1)N1CCN(Cc2cccc(Oc3cccc(Cl)c3)c2)CC1` [Example 225, 4-[3-(3-Chlorophenoxy)benzyl]-N-pyrazin-2-ylpiperazine-1-carboxamide], the IC50 [1] is reported as 0.535 µM and the IC50 [2] is reported as 0.043 µM.

`O=C(Nc1cnccn1)N1CCN(Cc2cccc(Oc3ccc(S(=O)(=O)C(F)(F)F)cc3)c2)CC1` [Example 226, N-Pyrazin-2-yl-4-(3-{4-[(trifluoromethyl)sulfonyl]phenoxy}benzyl)-piperazine-1-carboxamide] showed an IC50 [1] of 0.04 µM and an IC50 [2] of 0.006 µM.

With `O=C(Nc1cnccn1)N1CCN(Cc2cccc(Oc3ccccc3)c2)CC1` [Example 227, 4-(3-Phenoxy-benzyl)-piperazine-1-carboxylic acid pyrazin-2-ylamide] the IC50 [1] was 5.3 µM and the IC50 [2] was 0.4 µM.

For `O=C(Nc1cnccn1)N1CCN(Cc2cccc(Oc3ccc4ccccc4c3)c2)CC1` [Example 228, 4-[3-(Naphthalen-2-yloxy)-benzyl]-piperazine-1-carboxylic acid pyrazin-2-ylamide], the IC50 [1] was 0.08 µM and the IC50 [2] was 0.03 µM.

For `N#Cc1ccc(Oc2cccc(CN3CCN(C(=O)Nc4cnccn4)CC3)c2)cc1` [Example 229, 4-[3-(4-Cyano-phenoxy)-benzyl]-piperazine-1-carboxylic acid pyrazin-2-ylamide], the IC50 [1] was 3 µM and the IC50 [2] was 0.2 µM.

With `O=C(Nc1cnccn1)N1CCN(Cc2cc3ccccc3o2)CC1` [Example 230, 4-Benzofuran-2-ylmethyl-piperazine-1-carboxylic acid pyrazin-2-ylamide] the IC50 [1] was 6 µM and the IC50 [2] was 4 µM.

Molecule `O=C(Nc1cnccn1)N1CCN(Cc2cccc(Oc3ccc(F)c(F)c3)c2)CC1` [Example 231, 4-[3-(3,4-Difluorophenoxy)benzyl]-N-pyrazin-2-ylpiperazine-1-carboxamide] has an IC50 [1] of 3.6 µM and an IC50 [2] of 0.13 µM.

— patent publication US20090062294A1, “HETEROARYL-SUBSTITUTED UREA MODULATORS OF FATTY ACID AMIDE HYDROLASE” (priority 2007, published 2009)
